The term inhibition denotes the relative decrease from the control value, in per cent.

15 compounds from patent EP0745083B1, “2-HETEROARYL-5,11-DIHYDRO-6H-DIPYRIDO [3,2-b:2',3'-e][1,4]DIAZEPINES AND THEIR USE IN THE PREVENTION OR TREATMENT OF HIV INFECTION” (BOEHRINGER INGELHEIM PHARMACEUTICALS INC., priority 1994, dated 1995) can be followed below.

Holding throughout (format): biochemical, Human Immunodeficiency Virus (HIV-1)
One assay deals with T1, HIV-1 RT Y181C (Human immunodeficiency virus type 1 group M subtype B, UniProt P03367, Y780C).
T1 construct: Utilization of mutant RT eraymes (Y181C and Y181L, prepared by site-directed mutagenesis); made in house
The experiment in a line: Reverse Transcriptase (RT) Assay, Y181C mutant enzyme. Conditions: 1 µM compound; for inhibition at 1 µM: read-out: Reverse Transciptase Assay % inhibition (1 µM) Y181C. The text has this: (§1) Among the enzymes for which Human Immunodeficiency Virus (HIV-1) encodes is a reverse transcriptase (1), so-named because it transcribes a DNA copy from an RNA template. This activity can be quantitatively measured in a cell-free enzyme assay, which has been previously described (2), and is based upon the observation that reverse transcriptase is able to use a synthetic template [poly r(C) primed with oligo d(G)] to transcribe a radio-labelled, acid-precipitable DNA strand utilizing ^3H-dGTP as a substrate. The assay described below utilizes the wild type (WT) enzyme, which is the predominant form of the enzyme observed in patients infected with HIV-1. Utilization of mutant RT eraymes (Y181C and Y181L, prepared by site-directed mutagenesis in which the tyrosine residue at codon 181 has been replaced by a cysteine or a leucine residue, respectively) and analogous assay conditions allows compounds to be evaluated for their effectiveness at inhibiting these mutant enzymes.
(§2) The 2X concentrated stock reaction mixture is aliquoted and stored at -20°C. The mixture is stable and thawed for use in each assay. This enzyme assay has been adapted to a 96 well microtiter plate system, and has been previously described (6). Tris buffer (50 mM, pH 7.4), vehicle (solvent diluted to match the compound dilution), or compounds in vehicle are dispensed into 96-well microtiter plates (10µL/well; 3 wells/ compound). The HIV-1 RT enzyme is thawed, diluted in 50mM Tris pH 7.4 so that fifteen µL of diluted enzyme contain 0.001 Unit (one unit is that amount of enzyme to transform 1 micromole of substrate per minute at 25°C), and fifteen µL are dispensed per well. Twenty µL of 0.12-0.5M EDTA are added to the first three wells of the microtiter plate. EDTA chelates the Mg^++ present and prevents reverse transcription. This group serves as background polymerization which is subtracted from all other groups. Twenty-five ul of the 2X reaction mixture are added to all wells and the assay is allowed to incubate at room temperature for 60 minutes. The assay is terminated by precipitating the DNA in each well with 50µL of 10% trichloracetic acid (TCA) (10% w/v) in sodium pyrophosphate (1% w/v). The microtiter plate is incubated for 15 minutes at 4°C and the precipitate is fixed onto #30 glass fiber paper (Schleicher & Schuell) using a Skatron semi-automatic harvester. The filters are then washed with additional TCA (5%) containing sodium pyrophosphate (1%), rinsed with aqueous ethanol (70%), dried, and transferred to scintillation vials (6). Each vial receives 2 mL of scintillation cocktail and is counted in a Beckman beta counter. The calculation for percent inhibition is as follows: % inhibition =(CPM Mean Test Value - CPM Mean Control Value X100)/(CPM Mean Control Value) [formula]

Assay [1] has as its target T2, HIV-1 RT wild type (WT) enzyme (Human immunodeficiency virus type 1 group M subtype B, UniProt P03367).
T2 construct: Reverse transcriptase enzyme from the LAV strain of Human Immunodeficiency Virus (HIV-1) (1) was isolated from the bacterial strain JM109; made in house; host or cells: E. coli JM109 (clone pBRTprt1+ in vector pIBI21, lac promoter)
The experiment in a line: Reverse Transcriptase (RT) Assay, wild type enzyme (RNA-dependent DNA polymerase activity). Conditions: 1 µM compound; for inhibition at 1 µM: read-out: Reverse Transciptase Assay % inhibition (1 µM) WT.
From the text: Utilizing the Reverse Transcriptase (RT) Assay described below, compounds can be tested for their ability to inhibit the RNA-dependent DNA polymerase activity of HIV-1 RT. Certain specific compounds described in the Examples which appear below, were so tested.
as §1
Reverse transcriptase enzyme from the LAV strain of Human Immunodeficiency Virus (HIV-1) (1) was isolated from the bacterial strain JM109 (3) expressing the DNA clone pBRTprt1+ (2) which is under the control of the lac promotor in the expression vector pIBI21 (4). An overnight culture grown in 2XYT medium (37°C, 225 rpm) (5) supplemented with 100 µg/mL ampicillin for positive selection is inoculated at a 1:40 dilution into M9 medium supplemented with 10µg/mL thiamine, 0.5% casamino acids, and 50 µg/mL ampicillin (5). The culture is incubated (37°C, 225 rpm) until it reaches an OD540 of 0.3-0.4. At that time the repressor inhibitor IPTG (isopropyl β-D-thiogalactopyranoside) is added to 0.5mM, and the mixture is incubated for 2 additional hours. Bacteria are pelleted, resuspended in a 50mM Tris, 0.6mM EDTA, 0.375M NaCl buffer and digested by the addition of lysozyme (1mg/mL) for 30 minutes on ice. The cells are lysed by the addition of 0.2% NP-40 and brought to 1M NaCl.
After removal of the insoluble debris by centrifugation, the protein is precipitated by the addition of 3 volumes of saturated aqueous ammonium sulfate. The enzyme is pelleted, resuspended in RT buffer (50mM Tris pH 7.5, 1mM EDTA, 5mM DTT, 0.1% NP-40, 0.1M NaCI, and 50% glycerol), and stored at -70°C for further use.
as §2, with “The filters are then washed with additional TCA (5%) containing sodium pyrophosphate (1%), rinsed with aqueous ethanol (70%), dried, and transferred to scintillation vials (6). Each vial receives 2 mL of scintillation cocktail and is counted in a Beckman beta counter. The calculation for percent inhibition is as follows: % inhibition =(CPM Mean Test Value - CPM Mean Control Value X100)/(CPM Mean Control Value) [formula]” left out

Another assay deals with T3, HIV-1 RT Y188L (Human immunodeficiency virus type 1 group M subtype B, UniProt P03367, Y787L).
T3 construct: effective against the reverse transcriptase of many mutant viruses; made in house
The assay is described as follows: Reverse Transcriptase (RT) Assay, Y188L mutant enzyme. Conditions: 1 µM compound.

Regarding `CN1C(=O)c2cccnc2N(C)c2nc(-c3ccc[nH]3)ccc21` [Example 24, 5,11-Dihydro-5,11-dimethyl-2-(2-pyrrolyl)-6H-dipyrido[3,2-b:2',3'-e][1,4]diazepin-6-one], the results for the inhibition at 1 µM (at HIV-1 RT Y181C; in assay [1]) were 50% and 39%, respectively. In addition, the “Reverse Transciptase Assay % inhibition (1 µM) Y188L” value at HIV-1 RT Y188L stood at 18%.

In the case of `CCN1c2ncccc2C(=O)N(C)c2ccc(-c3c[nH]nc3C)nc21` [Example 10, 5,11-Dihydro-11-ethyl-5-methyl-2-(3-methylpyrazol-4-yl)-6H-dipyrido[3,2-b:2',3'-e][1,4]-diazepin-6-one], the values for the inhibition at 1 µM (on HIV-1 RT Y181C; in assay [1]) were 73% and 94%, respectively. The “Reverse Transciptase Assay % inhibition (1 µM) Y188L” value at HIV-1 RT Y188L came to 66%.

With “2-(1-Carbamylpyrazol-3-yl)-5,11-dihydro-11-ethyl-5-methyl-6H-dipyrido[3,2-b:2',3'-e][1,4]-diazepin-6-one [Example 7]”, the “Reverse Transciptase Assay % inhibition (1 µM) Y181C” value on HIV-1 RT Y181C was 84%. For the same compound, the “Reverse Transciptase Assay % inhibition (1 µM) WT” value in assay [1] is 94%. At HIV-1 RT Y188L, the “Reverse Transciptase Assay % inhibition (1 µM) Y188L” value is 52%.

On to `CCN1c2ncccc2C(=O)N(C)c2ccc(-c3c[nH]c(C(C)=O)c3)nc21` [Example 17, 2-(2-Acetylpyrrol-4-yl)-5,11-dihydro-11-ethyl-5-methyl-6H-dipyrido[3,2-b:2',3'-e][1,4]-diazepin-6-one], for which the inhibition at 1 µM on HIV-1 RT Y181C amounted to 62%; in assay [1], 78%. The “Reverse Transciptase Assay % inhibition (1 µM) Y188L” value at HIV-1 RT Y188L is listed as 27%.

For `CCN1c2ncccc2C(=O)N(C)c2ccc(-c3c[nH]c(C(N)=O)c3)nc21` [Example 22, 2-(2-Carbamylpyrrol-4-yl)-5,11-dihydro-11-ethyl-5-methyl-6H-dipyrido[3,2-b:2',3'-e][1,4]-diazepin-6-one], the inhibition at 1 µM at HIV-1 RT Y181C stood at 72%; in assay [1] it was 76%. Besides, the “Reverse Transciptase Assay % inhibition (1 µM) Y188L” value at HIV-1 RT Y188L came out at 30%.

Regarding `CCN1c2ncccc2C(=O)N(C)c2ccc(-c3cc4cc(OC)ccc4[nH]3)nc21` [Example 27, 5,11-Dihydro-11-ethyl-2-(5-methoxyindol-2-yl)-5-methyl-6H-dipyrido[3,2-b:2',3'-e][1,4]-diazepin-6-one], the values for the inhibition at 1 µM (at HIV-1 RT Y181C; in assay [1]) were 45% and 61%, respectively. Also, the “Reverse Transciptase Assay % inhibition (1 µM) Y188L” value at HIV-1 RT Y188L is reported as 58%.

Take `CCN1c2ncccc2C(=O)N(C)c2ccc(-c3cccn3C)nc21` [Example 11, 5,11-Dihydro-11-ethyl-5-methyl-2-(1-methylpyrrol-2-yl)-6H-dipyrido[3,2-b:2',3'-e][1,4]-diazepin-6-one]: the inhibition at 1 µM in assay [1] was determined as 81%.

As to `CCN1c2ncccc2C(=O)N(C)c2ccc(-c3ccn(C)c3)nc21` [Example 20, 5,11-Dihydro-11-ethyl-5-methyl-2-(1-methylpyrrol-3-yl)-6H-dipyrido[3,2-b:2',3'-e][1,4]-diazepin-6-one], the values for the inhibition at 1 µM (on HIV-1 RT Y181C; in assay [1]) were 36% and 65%, respectively. For the same compound, at HIV-1 RT Y188L, the “Reverse Transciptase Assay % inhibition (1 µM) Y188L” value was found to be 26%.

Turning to `CCN1C(=O)c2cccnc2N(C)c2nc(-c3ccc[nH]3)ccc21` [Example 23, 5,11-Dihydro-5-ethyl-11-methyl-2-(2-pyrrolyl)-6H-dipyrido[3,2-b:2',3'-e][1,4]diazepin-6-one], the values for the inhibition at 1 µM (at HIV-1 RT Y181C; in assay [1]) were 37% and 58%, respectively. The “Reverse Transciptase Assay % inhibition (1 µM) Y188L” value on HIV-1 RT Y188L came out at 47%.

Regarding `CCN1c2ncccc2C(=O)N(C)c2ccc(-c3cnn(C)c3)nc21` [Example 3, 5,11-Dihydro-11-ethyl-5-methyl-2-(1-methylpyrazol-4-yl)-6H-dipyrido[3,2-b:2',3'-e][1,4]-diazepin-6-one], the inhibition at 1 µM turned out to be 36% at HIV-1 RT Y181C and 63% in assay [1]. The “Reverse Transciptase Assay % inhibition (1 µM) Y188L” value at HIV-1 RT Y188L was 24%.

For the compound `CCOC(=O)c1cc(-c2ccc3c(n2)N(CC)c2ncccc2C(=O)N3C)c[nH]1` [Example 16, 5,11-Dihydro-2-[2-(ethoxycarbonyl)pyrrol-4-yl]-11-ethyl-5-methyl-6H-dipyrido-[3,2-b:2',3'-e][1,4]diazepin-6-one], the inhibition at 1 µM on HIV-1 RT Y181C came to 74%; in assay [1], 83%.

With `CCN1c2ncccc2C(=O)N(C)c2ccc(-c3cc[nH]n3)nc21` [Example 9, 5,11-Dihydro-11-ethyl-5-methyl-2-(3-pyrazolyl)-6H-dipyrido[3,2-b:2',3'-e][1,4]diazepin-6-one], the inhibition at 1 µM (on HIV-1 RT Y181C; in assay [1]) was 67% each time. Moreover, the “Reverse Transciptase Assay % inhibition (1 µM) Y188L” value at HIV-1 RT Y188L is given as 20%.

Consider `CCN1c2ncccc2C(=O)N(C)c2ccc(-c3cc[nH]c3C(C)=O)nc21` [Example 15, 2-(2-Acetylpyrrol-3-yl)-5,11-dihydro-11-ethyl-5-methyl-6H-dipyrido[3,2-b:2',3'-e][1,4]-diazepin-6-one], for which the inhibition at 1 µM on HIV-1 RT Y181C amounted to 59%; in assay [1] it was 52%. For the same compound, the “Reverse Transciptase Assay % inhibition (1 µM) Y188L” value at HIV-1 RT Y188L came out at 10%.

Take `CCN1c2ncccc2C(=O)N(C)c2ccc(-c3cn[nH]c3)nc21` [Example 26, 5,11-Dihydro-11-ethyl-5-methyl-2-(4-pyrazolyl)-6H-dipyrido[3,3-b:2',3'-e][1,4]diazepine-6-one]: the “Reverse Transciptase Assay % inhibition (1 µM) Y181C” value at HIV-1 RT Y181C is given as 33%. Moreover, the “Reverse Transciptase Assay % inhibition (1 µM) WT” value in assay [1] is 64%. Further, the “Reverse Transciptase Assay % inhibition (1 µM) Y188L” value on HIV-1 RT Y188L (1 µM) stood at 20%.

For the compound `CCN1c2ncccc2C(=O)N(C)c2ccc(-c3cccn3C(C)=O)nc21` [Example 14, 2-(1-Acetylpyrrol-2-yl)-5,11-dihydro-11-ethyl-5-methyl-6H-dipyrido[3,2-b:2',3'-e][1,4]-diazepin-6-one], the inhibition at 1 µM on HIV-1 RT Y181C worked out at 51%; in assay [1] it was 74%. For the same compound, the “Reverse Transciptase Assay % inhibition (1 µM) Y188L” value at HIV-1 RT Y188L was 23%.
